IC50 and Ki data for 17 compounds are collected here from US20230159510A1, “NOVEL PRMT5 INHIBITORS” (AMGEN INC., priority 2020, published 2023).

Read-outs that look alike come from different tables or passages of the source.

In one assay the test system is HCT116 MTAP null cells. As to the kind of experiment: HCT116 proliferation assay, MTAP null cells (CellTiter-Glo, 6 days). Format: cell-based. The settings on record: read-out: Protif_ HCT116-MTAP null IC50. An outline of the steps:
(§1)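 Cells grown in RPMI 1640 + 10% FBS, plated overnight, then exposed for 6 days to 8- or 9-point 1:3 compound dilutions (top 1 or 10 µM) with DMSO control. Viability read by CellTiter-Glo luminescence.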
A general note: Cellular ATP, detected with luciferase, serves as a proxy for viable cell number.

In another assay the test system is HCT116 WT cells. The assay can be described thus: HCT116 proliferation assay, WT cells (CellTiter-Glo, 6 days). It is filed as cell-based. The settings on record: read-out: Prolif_HCT116-WT IC50. An outline of the steps:
as §1

For another assay, the target named is PRMT5/MEP50 (Homo sapiens, UniProt O14744). As to the kind of experiment: MTase-Glo methyl transferase assay, Method A (Histone H4 peptide, 1 µM MTA, 24 h pre-incubation). Format: biochemical. The arrangement: made in house. The note with it: read-out: PRMT5 MTase Glo Ki (nM, Meth. A). An outline of the steps:
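PRMT5/MEP50 (10 nM) pre-incubated 24 h with compound, 5 µM SAM and 1 µM MTA, then reaction started with 1 µM Histone H4 (1-21) peptide and run 2 h at room temperature in Tris pH 8.0 buffer. SAH formed detected by MTase-Glo luminescence; IC50 and KI from dose-response curves.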

Chain of PRMT5/MEP50 (O14744 whole entry): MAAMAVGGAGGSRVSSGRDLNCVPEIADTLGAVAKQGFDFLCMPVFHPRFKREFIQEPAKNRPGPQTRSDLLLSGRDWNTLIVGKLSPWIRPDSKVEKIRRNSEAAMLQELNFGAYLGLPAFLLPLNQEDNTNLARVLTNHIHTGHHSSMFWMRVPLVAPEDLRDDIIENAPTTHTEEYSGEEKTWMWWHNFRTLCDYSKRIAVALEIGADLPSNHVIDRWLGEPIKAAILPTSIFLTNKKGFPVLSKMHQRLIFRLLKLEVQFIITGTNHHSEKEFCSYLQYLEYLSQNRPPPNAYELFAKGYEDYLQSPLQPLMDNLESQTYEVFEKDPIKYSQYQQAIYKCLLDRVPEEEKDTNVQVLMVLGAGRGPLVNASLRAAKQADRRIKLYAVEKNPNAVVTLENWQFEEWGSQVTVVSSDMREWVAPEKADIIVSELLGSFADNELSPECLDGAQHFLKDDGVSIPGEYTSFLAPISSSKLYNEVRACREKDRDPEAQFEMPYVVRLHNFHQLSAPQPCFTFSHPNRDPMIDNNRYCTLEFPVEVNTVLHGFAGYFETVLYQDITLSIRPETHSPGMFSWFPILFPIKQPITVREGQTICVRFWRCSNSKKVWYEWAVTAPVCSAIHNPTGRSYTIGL
Chain of PRMT5/MEP50 (Q9BQA1 whole entry partner): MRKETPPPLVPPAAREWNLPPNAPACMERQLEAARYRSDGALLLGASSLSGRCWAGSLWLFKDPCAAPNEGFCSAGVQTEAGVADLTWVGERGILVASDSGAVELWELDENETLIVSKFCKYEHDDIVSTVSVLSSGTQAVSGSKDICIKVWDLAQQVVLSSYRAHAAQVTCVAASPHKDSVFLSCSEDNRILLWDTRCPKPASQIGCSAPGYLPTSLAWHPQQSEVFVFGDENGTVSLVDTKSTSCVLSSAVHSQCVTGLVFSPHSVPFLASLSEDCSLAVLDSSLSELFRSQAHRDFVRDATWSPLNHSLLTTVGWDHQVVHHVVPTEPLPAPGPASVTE

Usually IC50 stands for the point on the concentration scale where inhibition reaches its midpoint. A word on the Ki: it is the dissociation constant of the complex between target and ligand, obtained from inhibition or displacement. Consider `Cc1cc2cc(C(=O)N(Cc3ccc(C(F)F)cn3)[C@H](C)c3ncccn3)ccc2nc1N` [Example 508, 2-amino-N-((5-(difluoromethyl)-2-pyridinyl)methyl)-3-methyl-N-((1R)-1-(2-pyrimidinyl)ethyl)-6-quinolinecarboxamide], for which the IC50 was 56 nM in the assay on HCT116 MTAP null cells (HCT116-MTAP null, 144 h) and 1700 nM in the assay with HCT116 WT cells (Homo sapiens, HCT-116, 144 h). In addition, the Ki on PRMT5/MEP50 was found to be 0.73 nM.

`Nc1nc2ccc(C(=O)N(Cc3ccc(C(F)(F)F)cn3)Cc3ncccn3)cc2cc1Br` [Example 317, 2-amino-3-bromo-N-(2-pyrimidinylmethyl)-N-((5-(trifluoromethyl)-2-pyridinyl)methyl)-6-quinolinecarboxamide]: the IC50 in the assay with HCT116 MTAP null cells (HCT116-MTAP null, 144 h) was 612 nM; in the assay on HCT116 WT cells (Homo sapiens, HCT-116, 144 h) it was more than 10000 nM. Further, the Ki at PRMT5/MEP50 was determined as 0.56 nM.

With `C[C@H](c1ncccc1F)N(Cc1ccc(Br)nn1)C(=O)c1cnc2nc(N)c(Br)cc2c1` [Example 424, 7-amino-6-bromo-N-((6-bromo-3-pyridazinyl)methyl)-N-((1R)-1-(3-fluoro-2-pyridinyl)ethyl)-1,8-naphthyridine-3-carboxamide], the IC50 with HCT116 MTAP null cells (HCT116-MTAP null, 144 h) stood at 319 nM; in the assay on HCT116 WT cells (Homo sapiens, HCT-116, 144 h), 9080 nM. In addition, the Ki on PRMT5/MEP50 worked out at 0.61 nM.

On to `Cc1cc2cc(C(=O)N(Cc3ncc(Br)cc3C)[C@H](C)c3ncccn3)ccc2nc1N` (single isomer, unassigned) [Example 474], for which the IC50 in the assay with HCT116 MTAP null cells (HCT116-MTAP null, 144 h) came out at 88 nM; in the assay with HCT116 WT cells (Homo sapiens, HCT-116, 144 h) it was 3270 nM. Further, on PRMT5/MEP50, the inhibition constant (Ki) was 0.04 nM.

On to `Cc1cc2cc(C(=O)N(Cc3ccc(C(F)(F)F)cn3)CC(C)C)c(F)cc2nc1N` [Example 314, 2-amino-7-fluoro-3-methyl-N-(2-methylpropyl)-N-((5-(trifluoromethyl)-2-pyridinyl)methyl)-6-quinolinecarboxamide], for which the IC50 in the assay on HCT116 MTAP null cells (144 h) stood at 218 nM; in the assay with HCT116 WT cells (Homo sapiens, HCT-116, 144 h) it was 5130 nM. At PRMT5/MEP50, the Ki worked out at 0.35 nM.

Consider `Cc1cc2cc(C(=O)N(Cc3ccc4[nH]ncc4c3)Cc3ccc(C(F)(F)F)cn3)ccc2nc1N` [Example 369, 2-amino-N-(1H-indazol-5-ylmethyl)-3-methyl-N-((5-(trifluoromethyl)-2-pyridinyl)methyl)-6-quinolinecarboxamide], for which the IC50 in the assay on HCT116 MTAP null cells is 138 nM; with HCT116 WT cells it was 3400 nM. On PRMT5/MEP50, the Ki stood at 0.17 nM.

For `COc1ccc(CN(C(=O)c2ccc3nc(N)c(C)cc3c2)[C@@H]2CCC[C@H]2O)nn1` [Example 367, 2-amino-N-((1R,2R)-2-hydroxycyclopentyl)-N-((6-methoxypyridazin-3-yl)methyl)-3-methylquinoline-6-carboxamide], the IC50 is 282 nM in the assay with HCT116 MTAP null cells (HCT116-MTAP null, 144 h) and more than 10000 nM in the assay with HCT116 WT cells (Homo sapiens, HCT-116, 144 h). Besides, the Ki on PRMT5/MEP50 is 0.41 nM.

`C[C@H](c1ncccn1)N(Cc1ccc(C(F)F)cn1)C(=O)c1cnc2nc(N)c(Br)cc2c1` [Example 407, 7-amino-6-bromo-N-((5-(difluoromethyl)-2-pyridinyl)methyl)-N-((1R)-1-(2-pyrimidinyl)ethyl)-1,8-naphthyridine-3-carboxamide]: the IC50 in the assay on HCT116 MTAP null cells (HCT116-MTAP null, 144 h) was 291 nM; with HCT116 WT cells (Homo sapiens, HCT-116, 144 h), more than 10000 nM. Moreover, the Ki at PRMT5/MEP50 came to 0.11 nM.

On to `Cc1cc2cc(C(=O)N(Cc3cccnc3)Cc3ccc(C(F)(F)F)cn3)ccc2nc1N` [Example 301, 2-amino-3-methyl-N-(3-pyridinylmethyl)-N-((5-(trifluoromethyl)-2-pyridinyl)methyl)-6-quinolinecarboxamide], for which the IC50 in the assay with HCT116 MTAP null cells (HCT116-MTAP null, 144 h) is 872 nM; with HCT116 WT cells (Homo sapiens, HCT-116, 144 h), more than 10000 nM. The Ki on PRMT5/MEP50 came out at 1.22 nM.

Take `Cc1cc2cc(C(=O)N(Cc3ccc(Br)nn3)[C@H](C)c3ncccn3)ccc2nc1N` (single isomer, unassigned) [Example 450]: the IC50 is 45 nM in the assay with HCT116 MTAP null cells (HCT116-MTAP null, 144 h) and 2020 nM with HCT116 WT cells (Homo sapiens, HCT-116, 144 h). Also, the Ki at PRMT5/MEP50 turned out to be 0.13 nM.

As to `C[C@H](c1ncccn1)N(Cc1ccc(Cl)cn1)C(=O)c1ccc2nc(N)c(Br)cc2c1` [Example 412, 2-amino-3-bromo-N-((5-chloro-2-pyridinyl)methyl)-N-((1R)-1-(2-pyrimidinyl)ethyl)-6-quinolinecarboxamide], the IC50 in the assay with HCT116 MTAP null cells (HCT116-MTAP null, 144 h) came to 123 nM; with HCT116 WT cells (Homo sapiens, HCT-116, 144 h), 4050 nM. In addition, the Ki on PRMT5/MEP50 amounted to 0.18 nM.

As for `Cc1cc2cc(C(=O)N(Cc3ccc(Br)cn3)CC(C)C)ccc2nc1N` [Example 357, 2-amino-N-((5-bromo-2-pyridinyl)methyl)-3-methyl-N-(2-methylpropyl)-6-quinolinecarboxamide], the IC50 in the assay with HCT116 MTAP null cells (HCT116-MTAP null, 144 h) came to 385 nM; in the assay on HCT116 WT cells (Homo sapiens, HCT-116, 144 h), 7050 nM. Further, the Ki on PRMT5/MEP50 was found to be 4.34 nM.

Regarding `Cc1cc2cc(C(=O)N(Cc3cncc(Cl)c3)Cc3ccc(C(F)(F)F)cn3)ccc2nc1N` [Example 439, 2-amino-N-((5-chloro-3-pyridinyl)methyl)-3-methyl-N-((5-(trifluoromethyl)-2-pyridinyl)methyl)-6-quinolinecarboxamide], the concentration for half-maximal inhibition (IC50) in the assay with HCT116 MTAP null cells (HCT116-MTAP null, 144 h) is 344 nM; with HCT116 WT cells (Homo sapiens, HCT-116, 144 h), more than 10000 nM. The Ki at PRMT5/MEP50 came to 1.19 nM.

`C[C@H](c1ncccn1)N(Cc1ccc(Cl)cn1)C(=O)c1cnc2nc(N)c(Br)cc2c1` [Example 414, 7-amino-6-bromo-N-((5-chloro-2-pyridinyl)methyl)-N-((1R)-1-(2-pyrimidinyl)ethyl)-1,8-naphthyridine-3-carboxamide]: the IC50 in the assay with HCT116 MTAP null cells (HCT116-MTAP null, 144 h) was found to be 234 nM; in the assay on HCT116 WT cells (Homo sapiens, HCT-116, 144 h), 5180 nM. Further, the Ki at PRMT5/MEP50 was 0.3 nM.

Regarding `[2H]C([2H])([2H])c1cc2cc(C(=O)N(Cc3ccc(C(F)(F)F)cn3)[C@H](C)c3ncccc3F)ccc2nc1N` [Example 440, (R)-2-amino-N-(1-(3-fluoropyridin-2-yl)ethyl)-3-(methyl-d3)-N-((5-(trifluoromethyl)pyridin-2-yl)methyl)quinoline-6-carboxamide], the half-inhibitory concentration (IC50) in the assay on HCT116 MTAP null cells (144 h) came to 38 nM; in the assay with HCT116 WT cells (Homo sapiens, HCT-116, 144 h), 690 nM. In addition, the Ki on PRMT5/MEP50 is less than 0.1 nM.

Regarding `Cc1cc2cc(C(=O)N(Cc3ccc(C(F)(F)F)cn3)Cc3ncc(Cl)cc3F)ccc2nc1N` [Example 304, 2-amino-N-((5-chloro-3-fluoro-2-pyridinyl)methyl)-3-methyl-N-((5-(trifluoromethyl)-2-pyridinyl)methyl)-6-quinolinecarboxamide], the IC50 is 182 nM in the assay with HCT116 MTAP null cells (HCT116-MTAP null, 144 h) and 4100 nM with HCT116 WT cells (Homo sapiens, HCT-116, 144 h). Also, the Ki at PRMT5/MEP50 was found to be 0.11 nM.

`Cc1cc2cc(C(=O)N(Cc3ccc(C#N)cn3)[C@@H]3CCC[C@H]3O)ccc2nc1N` [Example 365, 2-amino-N-((5-cyanopyridin-2-yl)methyl)-N-((1R,2R)-2-hydroxycyclopentyl)-3-methylquinoline-6-carboxamide]: the IC50 in the assay with HCT116 MTAP null cells (HCT116-MTAP null, 144 h) was 391 nM; in the assay on HCT116 WT cells (Homo sapiens, HCT-116, 144 h) it was more than 10000 nM. For the same compound, the Ki on PRMT5/MEP50 came to 0.42 nM.
